For two compounds, Kd and IC50 results are on record in US20130079345A1, “[…] ACTIVE DISUBSTITUTED TRIAZINE DERIVATIVES” (BAYER INTELLECTUAL PROPERTY GMBH, priority 2010, published 2013).

One test has as its target T1, CDK7/CyclinH/Mat1 (Homo sapiens, UniProt P50613).
T1 construct: purchased Carna Biosciences
The experiment in a line: LanthaScreen Eu Kinase Binding Assay, CDK7. To be noted: tracer 236, read-out: Affinity (Kd) CDK7. The method, then: (§1) This protocol describes how the LanthaScreen Eu Kinase Binding Assay was performed to determine dissociation constants (Kd) of compounds of general formula (I) and CDK/Cyclin complexes. The principle behind this assay is based upon the binding and displacement of an Alexa Fluor 647-labeled tracer, which binds to the active site of kinases. Binding of the tracer to the kinase is detected using a Eu-labeled antibody. Simultaneous binding of both the tracer and antibody to the kinase gives rise to a FRET-signal. Binding of an inhibitor to the kinase competes for binding with the tracer, resulting in a loss of FRET.
(§2) The compounds of general formula (I) summarized in Table 1 were diluted from a 10 mM DMSO stock solution 1:10 in a total volume of 15 μL DMSO. This compound predilution was then serial diluted 1:3 over 8 steps in DMSO and briefly spun down. Each compound solution was now diluted 1:33.33 in kinase buffer (HEPES: 20 mM, pH: 8.0; MgCl2: 10 mM; DTT: 1 mM; Brij-35: 0.01%), mixed thoroughly and spun down. For every sample, 5 μL of the diluted compound were mixed with 5 μL tracer working solution (e.g. 60 nM tracer 236 in kinase buffer for CDK2/Cyclin A) and 5 μL CDK/Cyclin/Anti-GST-AB-working solution (e.g. 15 nM CDK2/Cyclin A, 1:250 dilution of Anti-GST-AB in kinase buffer) in a well of a small volume 384 well plate (Corning Incorporated, Corning, N.Y., USA; order no. 3673). […] For positive controls, in each well 5 μL of DMSO working solution (3% DMSO diluted in kinase buffer) was mixed with 5 μL CDK/Cyclin/Anti-GST-AB-working solution: (e.g. 15 nM CDK2/Cyclin A, 1:250 dilution of Anti-GST-AB in kinase buffer) and 5 μL Tracer working solution (e.g. 60 nM Tracer 236 in kinase buffer for CDK2/Cyclin A). Positive and negative controls were calculated from at least 8 different sample wells. The 384 well plates were mixed in a Teleshaker plate mixer (Beckman Coulter, Brea, Calif., USA) at 2000 rpm for 40 sec, and incubated for 1 h at room temperature before reading. The FRET signal was measured at 340 nm excitation, 665 nm and 615 nm emission (for the kinase tracer and LanthaScreen Eu-AB, respectively) with an Envision spectrophotometer (Perkin Elmer, Waltham, Mass., USA) with 50 μs delay and 300 μs integration time. Kd values were determined from the sigmoidal dose response curves with the software Quattro Workflow (Quattro GmbH, Munich, Germany).
For orientation: TR-FRET usually uses a lanthanide donor and a delayed reading to cut background.

The target of another test is T2, CDK2/CyclinA (Homo sapiens, UniProt P24941).
T2 construct: purchased Proqinase
The test can be described thus: LanthaScreen Eu Kinase Binding Assay, CDK2. The following applies: tracer 236, read-out: Affinity (Kd) CDK2. The method, then: as §1, §2

The target in a further test is T3, CDK9/Cyclin T1 (Homo sapiens, UniProt P50750).
T3 construct: purchased Invitrogen
T3 sequence (P50750 whole entry): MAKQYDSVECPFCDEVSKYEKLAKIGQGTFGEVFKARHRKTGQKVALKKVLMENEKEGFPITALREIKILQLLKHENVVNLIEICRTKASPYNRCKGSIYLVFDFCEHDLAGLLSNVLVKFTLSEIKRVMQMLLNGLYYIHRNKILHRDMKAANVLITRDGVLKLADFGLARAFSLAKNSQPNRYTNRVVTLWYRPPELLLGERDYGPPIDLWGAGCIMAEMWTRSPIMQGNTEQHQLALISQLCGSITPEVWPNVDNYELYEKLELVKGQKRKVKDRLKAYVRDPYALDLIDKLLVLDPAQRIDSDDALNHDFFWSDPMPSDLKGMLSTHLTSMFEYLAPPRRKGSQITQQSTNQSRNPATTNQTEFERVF
T3 sequence (O60563 whole entry partner): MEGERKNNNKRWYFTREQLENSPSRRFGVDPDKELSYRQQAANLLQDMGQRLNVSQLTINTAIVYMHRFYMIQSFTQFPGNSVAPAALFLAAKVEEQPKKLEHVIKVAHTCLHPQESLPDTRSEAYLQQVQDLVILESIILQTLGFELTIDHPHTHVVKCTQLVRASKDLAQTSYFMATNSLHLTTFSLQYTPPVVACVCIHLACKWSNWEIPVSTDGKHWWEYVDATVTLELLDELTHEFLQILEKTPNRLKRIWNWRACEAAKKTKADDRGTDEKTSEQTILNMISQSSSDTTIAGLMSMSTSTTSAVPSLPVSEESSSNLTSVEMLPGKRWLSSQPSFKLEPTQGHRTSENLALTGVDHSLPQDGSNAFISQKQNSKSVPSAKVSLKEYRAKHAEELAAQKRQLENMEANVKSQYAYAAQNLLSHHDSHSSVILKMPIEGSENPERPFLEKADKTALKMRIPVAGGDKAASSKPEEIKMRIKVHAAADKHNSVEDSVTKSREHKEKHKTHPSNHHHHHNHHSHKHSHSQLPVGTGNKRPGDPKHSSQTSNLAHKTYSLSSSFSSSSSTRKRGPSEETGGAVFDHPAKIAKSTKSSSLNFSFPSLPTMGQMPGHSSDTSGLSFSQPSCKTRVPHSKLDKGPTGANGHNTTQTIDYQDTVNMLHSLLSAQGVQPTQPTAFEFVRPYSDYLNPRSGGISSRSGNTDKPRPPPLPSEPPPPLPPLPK
The test can be described thus: LanthaScreen Eu Kinase Binding Assay, CDK9/Cyclin T1. To be noted: tracer 236, read-out: Affinity (Kd) CDK9/Cyclin T1. The method, then: as §1, §2

A further test concerns the target T4, CDK9/Cyclin K (Homo sapiens, UniProt P50750).
T4 construct: purchased Invitrogen
The test can be described thus: LanthaScreen Eu Kinase Binding Assay, CDK9/Cyclin K. To be noted: tracer 236, read-out: Affinity (Kd) CDK9/Cyclin K. The procedure: as §1, §2

For the next test, the target named is T5, CDK8/Cyclin C (Homo sapiens, UniProt P49336).
T5 construct: purchased Invitrogen
T5 sequence (P49336 whole entry): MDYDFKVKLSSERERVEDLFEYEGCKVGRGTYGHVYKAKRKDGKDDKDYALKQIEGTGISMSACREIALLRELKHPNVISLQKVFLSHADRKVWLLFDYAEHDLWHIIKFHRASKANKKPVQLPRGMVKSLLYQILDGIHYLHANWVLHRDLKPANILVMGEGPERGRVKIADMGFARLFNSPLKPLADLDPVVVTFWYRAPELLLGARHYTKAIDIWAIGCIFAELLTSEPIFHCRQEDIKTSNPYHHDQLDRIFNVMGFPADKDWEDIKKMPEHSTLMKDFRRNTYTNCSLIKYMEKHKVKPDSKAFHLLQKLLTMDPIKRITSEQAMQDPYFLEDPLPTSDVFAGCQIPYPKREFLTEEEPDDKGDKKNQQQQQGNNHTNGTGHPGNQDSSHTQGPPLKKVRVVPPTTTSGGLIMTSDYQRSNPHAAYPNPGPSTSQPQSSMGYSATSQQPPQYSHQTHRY
T5 sequence (P24863 whole entry partner): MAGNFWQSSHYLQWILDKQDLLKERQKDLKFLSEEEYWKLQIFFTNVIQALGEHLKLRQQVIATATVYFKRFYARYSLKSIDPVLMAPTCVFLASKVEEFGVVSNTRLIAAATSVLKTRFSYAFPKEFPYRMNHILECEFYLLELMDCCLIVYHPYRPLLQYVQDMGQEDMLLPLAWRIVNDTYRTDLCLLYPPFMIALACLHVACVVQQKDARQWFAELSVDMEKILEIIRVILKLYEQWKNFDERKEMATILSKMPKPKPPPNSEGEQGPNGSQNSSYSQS
The test can be described thus: LanthaScreen Eu Kinase Binding Assay, CDK8. The following applies: tracer 236, read-out: Affinity (Kd) CDK8. The procedure: as §1, §2

The subject of test [1] is NF-kappaB reporter gene activation in HEK293 cells. The test can be described thus: NF-kappaB reporter assay. It counts as cell-based. To be noted: Homo sapiens, 20 ng/ml TNF alpha, 5 h. The procedure: Cells were maintained in RPMI cell culture medium+glutamine (PAN Biotech GmbH, Aidenbach, Germany) supplemented with 10% fetal calf serum (PAA Laboratories GmbH, Pasching, Austria) and grown at 37° C., 5% CO2. HEK293 cells grown to 50% confluence were transfected with the Amaxa® Cell Line Nucleofector® Kit V (Lonza, Basel, Switzerland, catalog #VCA-1003). Transfections were performed according to manufacturer's optimized protocol for transfection of HEK293 cells. In brief, 2×10^5 cells were transfected with 5 μg highly purified plasmid DNA. Cells were transfected with a NF-kappa B reporter plasmid (pNFkBluc), pTALluc for control, or pMAXGFP for transfection control. After transfection, cells were taken up in 500 μL RPMI1640 cell culture medium, incubated for 1 h at 37° C., and 4.5 ml DMEM without phenol red were added per transfection. Transfected cells were seeded in 96 well plates (Greiner Bio-One, Frickenhausen, Germany, catalog #655098) with 100 μL cell suspension per well and incubated for 48 h. To each well, 100 μL DMEM with 2× concentrated compound diluted from 10 mM DMSO stocks, or 100 μL DMEM with 0.4% DMSO for control wells, was added. The compounds of general formula (I) summarized in Table 6 were used in this assay. Cells were stimulated with 20 ng/ml TNF alpha, and plates were incubated for 5 h at 37° C./5% CO2. Cell culture supernatants were removed to leave 100 μl medium per well, followed by addition of 100 μl Bright Glo luciferase assay reagent (Promega, Madison, Wis., USA, catalog #E2620), and shaking for 5 minutes in the dark. Luminescence was measured with a Victor Photospectrometer (Perkin Elmer, Waltham, Mass., USA). […], values were calculated with the software Excel Fit (IDBS, Guildford, UK) from 2-fold dilution series comprising at least 10 concentrations in duplicates.
A general note: In a reporter assay the amount or activity of a reporter protein is the signal.

In test [2] the test system is LPS-induced TNF alpha release in PBMCs. The experiment in a line: TNF alpha release assay. It counts as cell-based. To be noted: Homo sapiens, PBMC, 6 h, 1 μg/mL LPS. The procedure:
Freshly isolated peripheral blood mononuclear cells (PBMCs) were seeded in 96-well cell culture plates with 200,000 cells in 100 μl cell culture medium (DMEM cell culture medium+glutamine from PAN Biotech GmbH, Aidenbach, Germany) supplemented with 10% fetal calf serum (PAA Laboratories GmbH, Pasching, Austria) per well and incubated overnight at 37° C., 5% CO2. To each well, 100 μL cell culture medium with 2× concentrated test compounds diluted from 10 mM DMSO stocks, or 100 μL DMEM with 0.4% DMSO for control wells, was added. The compounds of general formula (I) summarized in Table 6 were used in this assay. After incubation for 1 h at 37° C., 5% CO2, cells were stimulated with 1 μg/mL LPS (Lipopolysaccharides, Sigma, catalog #L4391-1MG; 1 mg/ml stock solution), or left untreated for negative controls, and plates were incubated for 6 h at 37° C./5% CO2. The cell culture plates were centrifuged at 2000 rpm for 5 minutes, and supernatants were transferred to fresh 96-well polypropylene plates. 25 µL of supernatants were transferred into 96-well-plates of the human TNF alpha-tissue culture kit (Meso Scale Discovery, Gaithersburg, Md., USA), and manufacturer's instructions were followed for analysis of TNF alpha levels. Chemoluminescence was measured in the Mesoscale Sector Imager, and EC50 values were calculated with the software Excel Fit (IDBS, Guildford, UK) from 2-fold dilution series comprising at least 6 concentrations in duplicates.

Broadly, the IC50 is the point on the concentration scale where inhibition reaches its midpoint. Low values mean higher potency, high ones lower potency.

T1 sequence (P50613 whole entry): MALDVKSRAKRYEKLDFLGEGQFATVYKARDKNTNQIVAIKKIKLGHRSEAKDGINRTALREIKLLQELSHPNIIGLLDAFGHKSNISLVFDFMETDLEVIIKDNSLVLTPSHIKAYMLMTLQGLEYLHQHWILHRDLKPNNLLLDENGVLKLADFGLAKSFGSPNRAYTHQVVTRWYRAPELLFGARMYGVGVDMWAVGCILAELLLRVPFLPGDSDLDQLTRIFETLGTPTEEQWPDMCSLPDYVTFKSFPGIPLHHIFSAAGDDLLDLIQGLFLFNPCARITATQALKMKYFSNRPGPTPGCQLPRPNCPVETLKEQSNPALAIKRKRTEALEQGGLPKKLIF
T1 sequence (P51946 whole entry partner): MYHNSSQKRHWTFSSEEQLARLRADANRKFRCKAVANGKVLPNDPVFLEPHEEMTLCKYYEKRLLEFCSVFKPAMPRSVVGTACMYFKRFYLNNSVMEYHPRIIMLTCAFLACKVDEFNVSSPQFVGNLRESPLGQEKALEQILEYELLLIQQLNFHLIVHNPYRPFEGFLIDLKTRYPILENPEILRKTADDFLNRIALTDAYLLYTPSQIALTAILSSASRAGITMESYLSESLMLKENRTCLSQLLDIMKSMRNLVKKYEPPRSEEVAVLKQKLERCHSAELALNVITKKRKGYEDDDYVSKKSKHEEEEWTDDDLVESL
T1 sequence (P51948 whole entry partner): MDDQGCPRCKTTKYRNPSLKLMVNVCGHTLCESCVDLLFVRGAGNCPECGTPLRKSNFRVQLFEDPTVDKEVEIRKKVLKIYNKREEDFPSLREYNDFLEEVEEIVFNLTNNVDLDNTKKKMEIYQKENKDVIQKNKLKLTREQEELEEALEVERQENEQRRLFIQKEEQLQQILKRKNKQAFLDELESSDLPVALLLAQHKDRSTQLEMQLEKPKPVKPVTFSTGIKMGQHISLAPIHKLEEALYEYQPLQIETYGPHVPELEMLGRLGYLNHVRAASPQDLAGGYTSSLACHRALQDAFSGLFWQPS
T4 sequence (P50750 whole entry): as the sequence (P50750 whole entry) above
T4 sequence (O75909 whole entry partner): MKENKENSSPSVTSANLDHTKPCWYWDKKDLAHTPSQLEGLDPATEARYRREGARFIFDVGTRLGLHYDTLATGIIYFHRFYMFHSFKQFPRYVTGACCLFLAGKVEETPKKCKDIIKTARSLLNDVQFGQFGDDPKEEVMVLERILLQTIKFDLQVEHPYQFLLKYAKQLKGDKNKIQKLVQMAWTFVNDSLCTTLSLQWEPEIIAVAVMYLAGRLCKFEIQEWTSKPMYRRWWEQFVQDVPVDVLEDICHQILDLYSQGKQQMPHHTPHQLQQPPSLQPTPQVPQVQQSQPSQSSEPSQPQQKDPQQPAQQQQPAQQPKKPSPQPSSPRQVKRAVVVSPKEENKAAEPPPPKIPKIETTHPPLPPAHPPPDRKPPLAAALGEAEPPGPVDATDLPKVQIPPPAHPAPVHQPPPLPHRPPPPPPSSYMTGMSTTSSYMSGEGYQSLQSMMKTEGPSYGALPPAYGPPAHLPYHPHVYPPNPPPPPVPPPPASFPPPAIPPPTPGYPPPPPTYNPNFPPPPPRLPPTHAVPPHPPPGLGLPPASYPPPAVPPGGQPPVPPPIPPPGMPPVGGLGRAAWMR

Take `NS(=O)(=O)Cc1cccc(Nc2ncnc(-c3cccc4c3OCO4)n2)c1` [Compound B15, 3-[(4-(1,3-Benzodioxol-4-yl)-1,3,5-triazin-2-yl)amino]benzenemethanesulfonamide]: the Kd was over 10 µM at CDK7/CyclinH/Mat1; 6.46 µM at CDK2/CyclinA; 0.141 µM on CDK9/Cyclin T1; 2.46 µM on CDK9/Cyclin K; over 10 µM on CDK8/Cyclin C.
In the case of `COc1ccccc1-c1ncnc(Nc2cccc(NC(=O)Nc3ccccc3)c2)n1` [Compound N1, N-[3-((4-(2-Methoxyphenyl)-1,3,5-triazin-2-yl)amino)phenyl]-N′-phenyl-urea], the values for the IC50 in test [1] and in test [2] were 18.4 µM and 6.71 µM, respectively. Besides, the Kd was over 30 µM on CDK7/CyclinH/Mat1; 2.36 µM at CDK2/CyclinA; 0.478 µM on CDK9/Cyclin T1; 0.159 µM at CDK9/Cyclin K; over 10 µM on CDK8/Cyclin C.
